Measured values as given in patent US20210196720A1 (UROVANT SCIENCES GMBH, priority 2018, published 2021).
Values joined by “and” are separate entries in the source; they are usually repeats but may differ in a detail not shown here. Equal values may be shown once. Read-outs that look alike come from different tables or passages of the source.

Assays:
[1] = Single rising oral dose Phase 1 PK, healthy adults (young males unless stated); type: in vivo, human; details: for AUC(0-inf) / Cmax / AUC(0-t) / half-life: human, plasma, oral; for AUC(0-t): read-out: AUC0-24
Protocol: The steady state AUC geometric mean accumulation ratios were ˜2 in young male subjects and ˜2.8 in elderly subjects (male and female).
All subjects were healthy adults. […] Systemic exposures were greater than dose proportional up to 600 mg.
Although exposures were similar in middle-aged males when compared to young males, plasma concentrations were higher in elderly compared to middle-aged and young subjects. […] Furthermore, the steady state AUC geometric mean accumulation ratios were ˜2 in young males and ˜2.8 in the elderly.

[2] = Aqueous vs non-aqueous tablet bioequivalence, 50 mg; type: in vivo, human
Description: An open-label, single-dose, randomized, two-period, two-treatment, two-sequence, crossover Phase 1 study evaluated the relative bioequivalence of two types of tablets with slightly different composition: aqueous tablet (test) and non-aqueous tablet (reference).

[3] = Moderate hepatic impairment PK, single 100 mg; type: in vivo, human; details: for half-life: read-out: Apparent terminal t1/2 (converted)
[4] = Maximum MA4 heart rate, multiple-dose Phase 1 study, day 14; type: in vivo, human
Protocol: More intensive assessments of heart rate and blood pressure were performed in healthy volunteers in several Phase 1 studies. […] Doses ranged from 25 to 400 mg once daily for 7 to 28 days depending on the cohort. Least squares mean and 90% confidence intervals of maximum change from baseline in moving average of heart rate over 4 hours postdose (MA4 HR) are presented in Table 14.

β3-AR = β3-AR (Homo sapiens, UniProt P13945); assay: biochemical
[5] = Renal impairment PK, single 100 mg; set-up: AUC0-inf GMR vs healthy / Cmax GMR vs healthy: unit not given beside the values;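 further: pharmacokinetic parameters in patients with renal impairment of differing severity, statistically compared against matched healthy subjects as controls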
[6] = both sexes, 50 mg, single 50 mg, elderly male and female
[7] = male, 10 mg, single 10 mg, Japanese
[8] = male, 50 mg, single 50 mg, Japanese, fasted
[9] = male, 50 mg, single 50 mg, fasted
[10] = male, 100 mg, single 100 mg, Japanese
[11] = male, 200 mg, single 200 mg, Japanese
[12] = male, 300 mg, single 300 mg, Japanese
[13] = human, plasma, oral, 100 mg, healthy matched controls
[14] = human, plasma, oral, 100 mg, moderate hepatic impairment

Sequence of β3-AR (P13945 whole entry): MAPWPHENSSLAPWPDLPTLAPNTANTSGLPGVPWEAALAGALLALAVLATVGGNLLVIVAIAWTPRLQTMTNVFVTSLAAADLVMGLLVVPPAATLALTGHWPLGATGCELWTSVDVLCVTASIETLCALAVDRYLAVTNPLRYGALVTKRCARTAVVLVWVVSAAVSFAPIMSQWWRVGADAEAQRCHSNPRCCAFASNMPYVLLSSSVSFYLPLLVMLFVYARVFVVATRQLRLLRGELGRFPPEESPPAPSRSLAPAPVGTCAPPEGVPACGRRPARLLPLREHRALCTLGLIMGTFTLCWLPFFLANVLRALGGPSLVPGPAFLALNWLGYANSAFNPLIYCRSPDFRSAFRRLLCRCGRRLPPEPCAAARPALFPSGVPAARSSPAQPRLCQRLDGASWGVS

O=C(Nc1ccc(C[C@@H]2CC[C@H]([C@H](O)c3ccccc3)N2)cc1)[C@@H]1CCc2nccc(=O)n21 [Vibegron, (6S)-N-[4-[[(2S,5R)-5-[(R)-hydroxy(phenyl)methyl]pyrrolidin-2-yl]methyl]phenyl]-4-oxo-7,8-dihydro-6H-pyrrolo[1,2-a]pyrimidine-6-carboxamide]
AUC(0-inf) [1, 6]: 951 ± 300 ng·h/mL
Cmax [1, 6]: 50.2 ± 23.6 ng/mL
AUC(0-t) [1, 6]: 314 ± 119 ng·h/mL
half-life ([1]; both sexes, 50 mg, single 50 mg, elderly male and female, read-out: t1/2 (converted)): 92 h
Cmax ([1]; male, 2 mg, single 2 mg): 0.28 ± 0.02 ng/mL
AUC(0-t) ([1]; male, 2 mg, single 2 mg): 0.8 ± 0.33 ng·h/mL
Cmax ([1]; male, 5 mg, single 5 mg): 0.79 ± 0.3 ng/mL
AUC(0-t) ([1]; male, 5 mg, single 5 mg): 8.31 ± 4.8 ng·h/mL
AUC(0-inf) ([1]; male, 10 mg, single 10 mg): 70.7 ± 34.9 ng·h/mL
Cmax ([1]; male, 10 mg, single 10 mg): 4.76 ± 4.58 ng/mL
AUC(0-inf) [1, 7]: 98.7 ± 27.3 ng·h/mL
Cmax [1, 7]: 3.34 ± 1.97 ng/mL
AUC(0-t) [1, 7]: 31 ± 9.33 ng·h/mL
half-life ([1]; male, 10 mg, single 10 mg, Japanese, read-out: t1/2 (converted)): 57.6 ± 39 h
AUC(0-t) ([1]; male, 10 mg, single 10 mg): 30 ± 12.6 ng·h/mL
half-life ([1]; male, 10 mg, single 10 mg, read-out: t1/2 (converted)): 43.2 ± 13 h
AUC(0-inf) ([1]; male, 20 mg, single 20 mg): 121 ± 48.9 ng·h/mL
Cmax ([1]; male, 20 mg, single 20 mg): 5.25 ± 4.25 ng/mL
AUC(0-t) ([1]; male, 20 mg, single 20 mg): 40 ± 21.1 ng·h/mL
half-life ([1]; male, 20 mg, single 20 mg, read-out: t1/2 (converted)): 64.2 ± 12.6 h
AUC(0-inf) [1, 8]: 885 ± 241 ng·h/mL
Cmax [1, 8]: 62.2 ± 20.4 ng/mL
AUC(0-t) [1, 8]: 385 ± 136 ng·h/mL
half-life ([1]; male, 50 mg, single 50 mg, Japanese, read-out: t1/2 (converted)): 64.4 ± 8.7 h
AUC(0-inf) [1, 9]: 551 ± 262 ng·h/mL
Cmax [1, 9]: 31.7 ± 35 ng/mL
AUC(0-t) [1, 9]: 219 ± 123 ng·h/mL
half-life ([1]; male, 50 mg, single 50 mg, read-out: t1/2 (converted)): 52 h
AUC(0-inf) ([1]; male, 100 mg, single 100 mg): 1890 ± 698 ng·h/mL
Cmax ([1]; male, 100 mg, single 100 mg): 142 ± 108 ng/mL
AUC(0-inf) [1, 10]: 1770 ± 418 ng·h/mL
Cmax [1, 10]: 190 ± 123 ng/mL
AUC(0-t) [1, 10]: 920 ± 300 ng·h/mL
half-life ([1]; male, 100 mg, single 100 mg, Japanese, read-out: t1/2 (converted)): 57.6 ± 12 h
AUC(0-t) ([1]; male, 100 mg, single 100 mg): 845 ± 401 ng·h/mL
half-life ([1]; male, 100 mg, single 100 mg, read-out: t1/2 (converted)): 72.8 ± 10.8 h
AUC(0-inf) ([1]; male, 150 mg, single 150 mg): 2270 ± 911 ng·h/mL
Cmax ([1]; male, 150 mg, single 150 mg): 195 ± 185 ng/mL
AUC(0-t) ([1]; male, 150 mg, single 150 mg): 1050 ± 551 ng·h/mL
half-life ([1]; male, 150 mg, single 150 mg, read-out: t1/2 (converted)): 60.5 ± 10.5 h
AUC(0-inf) ([1]; male, 200 mg, single 200 mg): 3630 ± 1110 ng·h/mL
Cmax ([1]; male, 200 mg, single 200 mg): 274 ± 138 ng/mL
AUC(0-inf) [1, 11]: 5200 ± 791 ng·h/mL
Cmax [1, 11]: 516 ± 200 ng/mL
AUC(0-t) [1, 11]: 3090 ± 569 ng·h/mL
half-life ([1]; male, 200 mg, single 200 mg, Japanese, read-out: t1/2 (converted)): 58.4 ± 9 h
AUC(0-t) ([1]; male, 200 mg, single 200 mg): 1740 ± 748 ng·h/mL
half-life ([1]; male, 200 mg, single 200 mg, read-out: t1/2 (converted)): 75.3 ± 9.1 h
AUC(0-inf) ([1]; male, 300 mg, single 300 mg): 7380 ± 1410 ng·h/mL
Cmax ([1]; male, 300 mg, single 300 mg): 618 ± 231 ng/mL
AUC(0-inf) [1, 12]: 6270 ± 1570 ng·h/mL
Cmax [1, 12]: 733 ± 210 ng/mL
AUC(0-t) [1, 12]: 4050 ± 1240 ng·h/mL
half-life ([1]; male, 300 mg, single 300 mg, Japanese, read-out: t1/2 (converted)): 59.7 ± 9.2 h
AUC(0-t) ([1]; male, 300 mg, single 300 mg): 4430 ± 996 ng·h/mL
half-life ([1]; male, 300 mg, single 300 mg, read-out: t1/2 (converted)): 63.4 ± 3 h
AUC(0-inf) ([1]; male, 450 mg, single 450 mg): 9160 ± 1850 ng·h/mL
Cmax ([1]; male, 450 mg, single 450 mg): 645 ± 165 ng/mL
AUC(0-t) ([1]; male, 450 mg, single 450 mg): 5510 ± 1440 ng·h/mL
half-life ([1]; male, 450 mg, single 450 mg, read-out: t1/2 (converted)): 60 ± 9.4 h
AUC(0-inf) ([1]; male, 600 mg, single 600 mg): 15500 ± 3450 ng·h/mL
Cmax ([1]; male, 600 mg, single 600 mg): 1330 ± 529 ng/mL
AUC(0-t) ([1]; male, 600 mg, single 600 mg): 10900 ± 2770 ng·h/mL
half-life ([1]; male, 600 mg, single 600 mg, read-out: t1/2 (converted)): 60.5 ± 5.2 h
half-life ([1]; male, 10 to 600 mg, healthy young males, read-out: terminal elimination t1/2): 43 to 75 h
half-life ([1]; male, Japanese subjects, read-out: harmonic mean apparent terminal t1/2): 58 to 71 h
AUC0-inf higher in elderly than young males ([1]; single 50 mg): ~70%
Cmax higher in elderly than young males ([1]; single 50 mg): 60%
t1/2 ([1]; single 50 mg): 52 h and 52.0 ± 7.8 h
t1/2 ([1]; single 50 mg, elderly male and female): 92 h and 92.1 ± 15.9 h
exposure increase, Japanese vs non-Japanese young males ([1]; single dose): < 2 fold
AUC0-inf GMR test/reference ([2]; 50 mg): 100.2%
Cmax GMR test/reference ([2]; 50 mg): 107.7%
AUC(0-inf) ([2]; 50 mg test, aqueous tablet (PMFII)): 671 ng·h/mL
Cmax ([2]; human, plasma, po, 50 mg, 50 mg reference, non-aqueous tablet (PMF1)): 38 ng/mL
Cmax ([2]; human, plasma, po, 50 mg, 50 mg test, aqueous tablet (PMFII)): 41 ng/mL
AUC(0-inf) ([2]; human, plasma, po, 50 mg, read-out: AUC0-inf): 671 ng·h/mL
CL/F ([3]; healthy matched controls): 68.3 L/h
AUC(0-inf) [3, 13]: 1440 ng·h/mL
Cmax [3, 13]: 125 ng/mL
half-life [3, 13]: 92.5 h
AUC(0-inf) [3, 14]: 1820 ng·h/mL
Cmax [3, 14]: 168 ng/mL
Tmax [3, 14]: 1 h
half-life [3, 14]: 94.5 h
CL/F ([3]; moderate hepatic impairment): 56.0 L/h
Maximum MA4 HR (LS mean) ([4]; 25 mg): 1.47 bpm
Maximum MA4 HR, difference from placebo ([4]; 25 mg): −1.60 bpm
Maximum MA4 HR (LS mean) ([4]; 50 mg): 1.50 bpm
Maximum MA4 HR, difference from placebo ([4]; 50 mg): −1.57 bpm
Maximum MA4 HR (LS mean) ([4]; 100 mg): 3.28 bpm
Maximum MA4 HR (LS mean) ([4]; 150 mg): 3.17 bpm
Maximum MA4 HR, difference from placebo ([4]; 150 mg): 0.10 bpm
Maximum MA4 HR (LS mean) ([4]; 200 mg): 5.67 bpm
Maximum MA4 HR, difference from placebo ([4]; 200 mg): 2.60 bpm
Maximum MA4 HR (LS mean) ([4]; 300 mg): 9.06 bpm
Maximum MA4 HR, difference from placebo ([4]; 300 mg): 5.98 bpm
Maximum MA4 HR (LS mean) ([4]; 400 mg): 10.33 bpm
Maximum MA4 HR, difference from placebo ([4]; 400 mg): 7.26 bpm
IC50 (β3-AR): 193 nM
AUC(0-inf) ([5]; healthy matched controls): 1540 ng·h/mL
Apparent terminal t1/2 ([5]; healthy matched controls): 98.8 h
CL/F ([5]; healthy matched controls): 64.9 L/h
CLR ([5]; healthy matched controls): 10.4 L/h
Fe[urine]48 hr ([5]; healthy matched controls): 7.9%
AUC0-inf GMR vs healthy ([5]; mild renal impairment): 1.49
AUC0-inf higher than healthy controls ([5]; mild renal impairment): 49%
AUC(0-inf) ([5]; mild renal impairment): 2290 ng·h/mL
Apparent terminal t1/2 ([5]; mild renal impairment): 96.2 h
CL/F ([5]; mild renal impairment): 43.6 L/h
CLR ([5]; mild renal impairment): 6.3 L/h
CLR reduction vs healthy controls ([5]; mild renal impairment): 39%
Cmax ([5]; mild renal impairment): 210 ng/mL
Cmax GMR vs healthy ([5]; mild renal impairment): 1.96
Cmax higher than healthy controls ([5]; mild renal impairment): 96%
Fe[urine]48 hr ([5]; mild renal impairment): 8.5%
Tmax ([5]; mild renal impairment): 1.0 h
AUC0-inf GMR vs healthy ([5]; moderate renal impairment): 2.06
AUC0-inf higher than healthy controls ([5]; moderate renal impairment): 106%
AUC(0-inf) ([5]; moderate renal impairment): 3170 ng·h/mL
Apparent terminal t1/2 ([5]; moderate renal impairment): 108 h
CL/F ([5]; moderate renal impairment): 31.5 L/h
CLR ([5]; moderate renal impairment): 3.6 L/h
CLR reduction vs healthy controls ([5]; moderate renal impairment): 65%
Cmax ([5]; moderate renal impairment): 180 ng/mL
Cmax GMR vs healthy ([5]; moderate renal impairment): 1.68
Cmax higher than healthy controls ([5]; moderate renal impairment): 68%
Fe[urine]48 hr ([5]; moderate renal impairment): 5.5%
Tmax ([5]; moderate renal impairment): 1.3 h
mean increase in AUC vs normal renal function ([5]; moderate renal impairment): 1.6 fold
AUC0-inf GMR vs healthy ([5]; severe renal impairment): 1.83
AUC0-inf higher than healthy controls ([5]; severe renal impairment): 83%
AUC(0-inf) ([5]; severe renal impairment): 2820 ng·h/mL
CL/F ([5]; severe renal impairment): 35.5 L/h
CLR ([5]; severe renal impairment): 1.9 L/h
CLR reduction vs healthy controls ([5]; severe renal impairment): 82%
Cmax GMR vs healthy ([5]; severe renal impairment): 1.42
Cmax higher than healthy controls ([5]; severe renal impairment): 42%
Fe[urine]48 hr ([5]; severe renal impairment): 2.1%
Tmax ([5]; severe renal impairment): 0.5 h
